Data reported in ChEMBL document CHEMBL1123680, “The influence of physicochemical parameters on the biliary excretion of a series of nitroimidazoles” (J Med Chem, 1987).

Experiments:
[1] = Percent biliary excretion property by administering intravenously to rats was reported as amount of unchanged form of compound detected in bile samples collected at 0-1 hr after the treatment.; details: rat, iv
[2] = Percent biliary excretion property by administering intravenously to rats was reported as amount of unchanged form of compound detected in bile samples collected at 0-6 hr after the treatment.; details: rat, iv
[3] = Percent biliary excretion property by administering intravenously to rats was reported as amount of unchanged form of compound detected in bile samples collected at 0-5 hr after the treatment.; details: rat, iv
[4] = Percent biliary excretion property by administering intravenously to rats was reported as amount of unchanged form of compound detected in bile samples collected at 0-3 hr after the treatment.; details: rat, iv
[5] = Percent biliary excretion property by administering intravenously to rats was reported as amount of unchanged form of compound detected in bile samples collected at 0-4 hr after the treatment.; details: rat, iv
[6] = Partition coefficient (logP); details: octanol/water
[7] = Percent biliary excretion property by administering intravenously to rats was reported as amount of unchanged form of compound detected in bile samples collected at 0-2 hr after the treatment.; details: rat, iv

dose excreted [1]	dose excreted [2]	dose excreted [3]	dose excreted [4]	dose excreted [5]	logP [6]	dose excreted [7]	Structure (SMILES)
13%	32%	31.1%	25%	29.2%	-0.69	19.2%	Cn1c([N+](=O)[O-])cnc1C=O
16.7%	37.8%	34.6%	29.6%	34.6%		23.3%	Cn1c([N+](=O)[O-])cnc1CO
2.99%	14%	14%	9.6%	11.7%		5.37%	CC(C)c1ncc([N+](=O)[O-])n1C [IPRONIDAZOLE]
6.77%	24.6%	22.3%	16.8%	19.7%		12.5%	Cc1ncc([N+](=O)[O-])n1CCO [METRONIDAZOLE]
1.68%	14.7%	13.5%	10.6%	12.3%		7.33%	Cc1ncc([N+](=O)[O-])n1CC(O)CCl (stereo not drawn) [ORNIDAZOLE]
4%	19.7%	16.2%	8.88%	15.5%	-0.38	6.96%	Cn1c([N+](=O)[O-])cnc1COC(N)=O [RONIDAZOLE]

Further lines, the compound ahead of its results:

Structure (SMILES)	dose excreted [1]	dose excreted [2]	dose excreted [3]	dose excreted [4]	dose excreted [5]	logP [6]	dose excreted [7]
O=[N+]([O-])c1c[nH]cn1	8.71%	26.2%	24.3%	17.6%	20.9%		14.1%
Cn1c([N+](=O)[O-])cnc1/C=C/c1ccnc(N)n1 [AZANIDAZOLE]	14.4%	33.1%	30.6%	25%	28.4%		21.1%
COC(=S)NCCn1c([N+](=O)[O-])cnc1C [CARNIDAZOLE]	1.91%	8.94%	8.42%	5.11%	7%		3.43%
O=[N+]([O-])c1cncn1CCN1CCOCC1 [NIMORAZOLE]	3.42%	11.8%	10.7%	6.92%	8.71%		5.25%
CCS(=O)(=O)CCn1c([N+](=O)[O-])cnc1C [TINIDAZOLE]	1.99%	10.5%	8.81%	5.25%	7.58%		3.47%
